# Laboratory results from patent US20220226357A1, “METHODS FOR TREATING NEURODEGENERATIVE DISORDERS” (THOMAS JEFFERSON UNIVERSITY, priority 2019, published 2022).
# “Also recorded” adds a separate entry of the source. Marks after values point to notes of the source that are not given here.
# What was measured:
# Format in all cases: in vivo
# [1] = test system: AAV-A53T α-synuclein rat model; assay: Striatal dopamine and metabolite levels (UHPLC, electrochemical detection); conditions: for DA / DOPAC: striatum
# Method: Institutional Animal Care and Use Committee and conducted in accordance with the National Institutes of Health Guide for the Care and Use of Laboratory Animals. Adult male Sprague-Dawley rats (Envigo), 250 to 300 g at the time of surgery, were housed three per cage with ad libitum access to food and water during a 12-hour light/dark cycle. All surgeries were performed under general anesthesia using a mixture of ketamine (100 mg/kg, i.p.) and xylazine (10 mg/kg, i.p.). Once animals were anesthetized, the head was shaved and surgically prepped with Betadine solution and alcohol before being placed in a Kopf stereotaxic frame with the incisor bar set at approximately 3.5 mm below horizontal zero to achieve a flat skull position. The skin on the top of the skull was cut along the midline and retracted. […] Following a 5 minute wait period after completion of the injection, the needle was slowly withdrawn, the skin wound was closed, and post-surgery analgesia (meloxicam 1 mg/kg) was administered. Some rats were randomly assigned to receive daily GM1 ganglioside (porcine brain derived GM1, 30 mg/kg, i.p., Qilu Pharmaceutical Co., Ltd.) or similar volume saline injections beginning 24 hours after AAV-A53T-synuclein surgery and lasting for 6 weeks (early start group). Other animals were randomly assigned to receive daily GM1 ganglioside (porcine brain derived GM1, 30 mg/kg, i.p., Qilu Pharmaceutical Co.) or similar volume saline injections beginning 3 weeks after AAV-A53T-synuclein surgery and lasting for 5 weeks (delayed start group). […] At the conclusion of the study, animals were euthanized, fresh brains were rapidly removed, and two to three striatal samples from both sides were dissected and immediately frozen for later analyses. The remainder of the brain (including the striatum beginning at the level of the decussation of the anterior commissure) was submersion fixed in 4% paraformaldehyde.
# Striatal samples were sonicated cold in 0.4 M perchloric acid for 10 seconds and centrifuged at 13,000 rpm for 10 min at 4° C. The supernatant was removed and was diluted 1:4 with Milli-Q ultrapure water (resistivity 18.2 MΩ·cm) containing internal standard (isoproterenol, 4 ng). The diluted samples were centrifuged again at 13,000 rpm for 5 min at 4° C. Samples were kept on ice prior to loading into the refrigerated (4° C.) autosampler integrated with the HPLC system. An ALEXYS UHPLC system (Antec Scientific) with electrochemical detection (Decade Elite electrochemical detector with a glassy carbon electrode) was used for the analyses. […] The mobile phase (pH 3.0) consisted of 100 mM phosphoric acid, 100 mM citric acid, 0.1 mM EDTA.Na2, 600 mg/L octanesulfonic acid sodium salt, and 8% acetonitrile. Pump flow rate was 50 μl/min. The analytes were detected at an oxidation potential of 600 mV against a reference electrode at 0 mV. Data were acquired and processed using Clarity software (v7.4.1) (DataApex). Peak heights were compared against internal standard curves to determine the concentrations of DA and metabolites in each sample.
# [2] = test system: AAV-A53T α-synuclein rat model; assay: Size of α-synuclein-positive aggregates in the striatum; conditions: for maximum aggregate size measured: striatum
# Description: Fixed tissue blocks were immersed in 30% sucrose for cryoprotection and sectioned frozen on a sliding microtome (30 μm section thickness for striatal sections; 40 μm section thickness for SN sections). Sections through the rostro-caudal extent of the SN were collected and every sixth section from the SN was processed for tyrosine hydroxylase (TH) immunohistochemistry to be used for stereological cell counting. Three striatal sections from approximately the level of the decussation of the anterior commissure in each case were processed for α-synuclein immunohistochemistry. For immunohistochemistry, sections were washed and permeabilized with PBS containing 0.2% Triton X-100. Endogenous peroxidase activity was quenched using 3% hydrogen peroxide in PBS containing 0.2% Triton X-100. Sections were then blocked in PBS/triton X-100 containing 10% normal goat serum and 2% BSA, followed by primary antibody incubation (TH (rabbit anti-TH, 1:2,000, Pel-Freez); α-synuclein (mouse anti-α-synuclein clone 211; 1:2000, Millipore) overnight at 4° C. The following day, sections were washed in PBS and incubated in biotinylated secondary antibody (goat-anti-rabbit 1:4000 for TH; goat-anti-mouse 1:2000 for α-synuclein 1:2000, VECTOR Laboratories), followed by additional washes and incubation in avidin biotin complex (VECTASTAIN Elite ABC system, VECTOR Laboratories). The reaction product was visualized with 3,3′-diaminobenzidine (DAB) (Immpact DAB, VECTOR Laboratories). Sections were then mounted, dehydrated, cleared and coverslipped. Sections stained for visualization of TH and to be used for stereological cell counting were counterstained with cresyl violet prior to coverslipping. […] Slides were coded and analyzed blindly. […] Cells were then counted at high power (100×) using a counting frame measuring 60 μm^2. […] This process was repeated for each section in the series for a given animal, and a total of 7-8 sections/animal were analyzed. Nissl-stained cells were counted concurrently in the same sections using the same sampling parameters. […]
# Immunoblotting for α-synuclein expression was performed using the Wes western blot system (ProteinSimple). […] The sizes of α-synuclein-positive swelling/aggregates were measured in 3 fields (one medial, one central and one lateral) from 1 coronal section (at the approximate level of the decussation of the anterior commissure). Photographs were captured using a 40× objective on a Nikon Eclipse Ni microscope and α-synuclein-positive structures with an area >5 μm2 were considered as aggregates and were measured using Nikon MS Elements AR software. Data are presented as the distribution of aggregate sizes in the three striatal regions measured.
# [3] = test system: AAV-A53T α-synuclein rat model; assay: Immunohistochemistry of Ser129-phosphorylated α-synuclein in the SN; conditions: delayed start GM1; 8 weeks after AAV-A53T; not quantified
# [4] = delayed start GM1, 8 weeks after AAV-A53T
# [5] = early start GM1, 6 weeks after AAV-A53T
# [6] = AAV-A53T/Early GM1, injected side
# [7] = AAV-A53T/Early GM1, non-injected side
# [8] = delayed start GM1 (3 weeks after AAV-A53T)
# [9] = early start GM1 (24 hours after AAV-A53T)
substance,measurement,setting,value
GM1 ganglioside,"DOPAC levels on the injected side, % of non-injected side",[1]; [4],82.0±8.4%
same,"DOPAC/DA ratio on the injected side, % of contralateral side",[1]; [4],150.0±10.9%
same,"striatal DA levels on the injected side, % of contralateral side",[1]; [4],55.0±3.9%
same,"DOPAC/DA ratio on the injected side, % of contralateral side",[1]; [5],112.3±9.5%
same,"striatal DA levels on the injected side, % of contralateral side",[1]; [5],64.0±3.5%
same,DA,"[1]; AAV-A53T/Delayed GM1, injected side",5.87 ± 0.47^b μg/g wet tissue
same,DOPAC,"[1]; AAV-A53T/Delayed GM1, injected side, two outlier samples removed",0.93 ± 0.12^ μg/g wet tissue
same,DA,"[1]; AAV-A53T/Delayed GM1, non-injected side",10.73 ± 0.54 μg/g wet tissue
same,DOPAC,"[1]; AAV-A53T/Delayed GM1, non-injected side, two outlier samples removed",1.18 ± 0.10^ μg/g wet tissue
same,DA,[1]; [6],7.29 ± 0.45^a μg/g wet tissue
same,DOPAC,[1]; [6],0.85 ± 0.09 μg/g wet tissue
same,DA,[1]; [7],11.43 ± 0.32 μg/g wet tissue
same,DOPAC,[1]; [7],1.33 ± 0.10 μg/g wet tissue
same,"size distribution of striatal α-synuclein-positive aggregates, GM1 vs saline",[2]; [8],greater numbers of larger sized aggregates in the saline-treated group compared to the GM1 group
same,maximum aggregate size measured,[2]; [8],29.3 μm^2
same,"size distribution of striatal α-synuclein-positive aggregates, GM1 vs saline",[2]; [9],larger numbers of smaller sized aggregates and fewer larger sized aggregates
same,maximum aggregate size measured,[2]; [9],28.8 μm^2
same,"Ser129-phosphorylated α-synuclein staining in the SN, GM1 vs saline",[3],less intense cytoplasmic Ser129-phosphorylated α-synuclein staining and fewer/smaller nuclear aggregates; also recorded: more Ser129 phosphorylated α-synuclein staining in saline-treated animals compared to GM1-treated animals
